According to paper PMC3744326 (Synapse (New York, N.Y.), 2013):

Biological target: T1, serotonin 5-HT1A receptor (Rattus norvegicus, UniProt P19327)
T1 sequence (P19327 1-422): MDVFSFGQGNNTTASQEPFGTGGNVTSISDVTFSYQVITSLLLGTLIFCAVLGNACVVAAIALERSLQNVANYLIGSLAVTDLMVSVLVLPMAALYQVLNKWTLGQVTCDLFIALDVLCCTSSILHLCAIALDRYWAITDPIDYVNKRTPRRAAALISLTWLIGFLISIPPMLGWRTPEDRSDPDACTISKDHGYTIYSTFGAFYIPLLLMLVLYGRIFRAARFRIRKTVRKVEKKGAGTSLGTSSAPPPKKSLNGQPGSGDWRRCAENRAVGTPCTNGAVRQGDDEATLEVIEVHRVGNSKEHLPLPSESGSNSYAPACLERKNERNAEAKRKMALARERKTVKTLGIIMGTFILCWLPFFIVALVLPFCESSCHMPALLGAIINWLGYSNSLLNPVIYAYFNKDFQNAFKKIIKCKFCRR
Assay: [3H]WAY-100635 radioligand displacement in rat brain homogenates
Type: binding

Ki: 840 pM
Structure (SMILES): COc1ccccc1N1CCN(CCN(c2ccccn2)C(=O)[C@H]2CC[C@H](CF)CC2)CC1 [trans-mefway, N-{2-[4-(2'-methoxyphenyl)piperazinyl]ethyl}-N-(2-pyridyl)-N-(cis/trans-4'-[^18F]fluoromethylcyclohexane)-carboxamide]
